Usually Papp A→B stands for how fast a substance crosses the layer from the apical side. As usually defined, the Papp B→A is how fast a substance crosses the layer from the basolateral side.

The data set is described as follows: in vitro. Type of data set: in vitro ADME. Conditions: human. The procedure, abridged: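 Caco-2 monolayers cultured 19 days on inserts (TEER >600 […]); bidirectional A-to-B and B-to-A transport at 37° C over 90 min, samples quantified by LC/MS/MS. Papp, efflux ratio and recovery calculated; ER >2 flags potential efflux substrates.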
Setting [1] is: Caco-2 monolayer, apical to basolateral, 90-minute incubation, read-out: Papp, A-B.
The mark [2] stands for this setting: Caco-2 monolayer, basolateral to apical, 90-minute incubation, read-out: Papp, B-A.
Setting [3] is: Caco-2 monolayer, ER>2 indicates potential efflux transporter substrate, read-out: ER (efflux ratio).

Each structure is given as a SMILES string. Like-named read-outs stand apart in the source and are kept apart here.

Consider `CC(C)C(=O)OC[C@H]1O[C@@](C#N)(c2ccc3c(N)ncnn23)[C@H](O)[C@@H]1OC(=O)C(C)C` [Compound 62, (2R,3S,4R,5R)-5-(4-aminopyrrolo[2,1-f][1,2,4]triazin-7-yl)-5-cyano-4-hydroxy-2-((isobutyryloxy)methyl)tetrahydrofuran-3-yl isobutyrate], for which, under “Caco-2”, the Papp A→B at 90 min is 3 ×10⁻⁶ cm/s, the Papp B→A at 90 min came to 2.4 ×10⁻⁶ cm/s and the efflux ratio at 90 min came to 0.8.

For the compound `CC(C)C(=O)OC[C@H]1O[C@@](C#N)(c2ccc3c(N)ncnn23)[C@H](O)[C@@H]1OCOC(=O)C(C)(C)C` [Compound 64, (((2R,3S,4R,5R)-5-(4-aminopyrrolo[2,1-f][1,2,4]triazin-7-yl)-5-cyano-4-hydroxy-2-((isobutyryloxy)methyl)tetrahydrofuran-3-yl)oxy)methyl pivalate], under “Caco-2”, the Papp A→B at 90 min was determined as 5.9 ×10⁻⁶ cm/s, the apparent permeability from basolateral to apical (Papp B→A) at 90 min is 7.1 ×10⁻⁶ cm/s and the efflux ratio at 90 min is 1.2.

With `CCC(=O)OC[C@H]1O[C@@](C#N)(c2ccc3c(N)ncnn23)[C@H](O)[C@@H]1OC(=O)CC1CCCCC1` [Compound 66, [(2R,3S,4R,5R)-5-{4-aminopyrrolo[2,1-f][1,2,4]triazin-7-yl}-5-cyano-3-[(2-cyclohexylacetyl)oxy]-4-hydroxyoxolan-2-yl]methyl propanoate], for the setting “Caco-2”, the Papp A→B at 90 min amounted to 2.7 ×10⁻⁶ cm/s, the Papp B→A at 90 min turned out to be 0.36 ×10⁻⁶ cm/s and the efflux ratio at 90 min was found to be 0.13.

`CCC(=O)OC[C@H]1O[C@@](C#N)(c2ccc3c(N)ncnn23)[C@H](O)[C@@H]1OC(=O)[C@@H](N)C(C)C` [Compound 67, (2R,3S,4R,5R)-5-{4-aminopyrrolo[2,1-f][1,2,4]triazin-7-yl}-5-cyano-4-hydroxy-2-[(propanoyloxy)methyl]oxolan-3-yl(2S)-2-amino-3-methylbutanoate]: where the note is “Caco-2”, the Papp A→B at 90 min was determined as 0.3 ×10⁻⁶ cm/s, the Papp B→A at 90 min was found to be 0.1 ×10⁻⁶ cm/s and the efflux ratio at 90 min came out at 0.33.

On to `CCC(=O)OC[C@H]1O[C@@](C#N)(c2ccc3c(N)ncnn23)[C@H](O)[C@@H]1OC(=O)Cc1ccccc1` [Compound 68, ((2R,3S,4R,5R)-5-(4-aminopyrrolo[2,1-f][1,2,4]triazin-7-yl)-5-cyano-4-hydroxy-3-(2-phenylacetoxy)tetrahydrofuran-2-yl)methyl propionate], for which the Papp A→B at 90 min under setting [1] amounted to 3.3 ×10⁻⁶ cm/s. The Papp B→A at 90 min under setting [2] is 9.3 ×10⁻⁶ cm/s. The efflux ratio at 90 min under setting [3] was found to be 2.8.

As to `CCC(=O)OC[C@H]1O[C@@](C#N)(c2ccc3c(N)ncnn23)[C@H](O)[C@@H]1OC(=O)C(C)C` [Compound 70, [(2R,3S,4R,5R)-5-{4-aminopyrrolo[2,1-f][1,2,4]triazin-7-yl}-5-cyano-4-hydroxy-3-[(2-methylpropanoyl)oxy]oxolan-2-yl]methyl propanoate], under “Caco-2”, the Papp A→B at 90 min is 1.8 ×10⁻⁶ cm/s, the Papp B→A at 90 min was 1.6 ×10⁻⁶ cm/s and the efflux ratio at 90 min turned out to be 0.82.

Take `CCC(=O)OC[C@H]1O[C@@](C#N)(c2ccc3c(N)ncnn23)[C@H](O)[C@@H]1OC(=O)CC` [Compound 71]: the Papp A→B at 90 min under setting [1] came to 0.94 ×10⁻⁶ cm/s. Besides, the Papp B→A at 90 min under setting [2] was determined as 2.3 ×10⁻⁶ cm/s. Further, under setting [3], the efflux ratio at 90 min is 2.4.

As to `CCC(=O)OC[C@H]1O[C@@](C#N)(c2ccc3c(N)ncnn23)[C@H](O)[C@@H]1OCOC(=O)C(C)(C)C` [Compound 72, {[(2R,3S,4R,5R)-5-{4-aminopyrrolo[2,1-f][1,2,4]triazin-7-yl}-5-cyano-4-hydroxy-2-[(propanoyloxy)methyl]oxolan-3-yl]oxy}methyl 2,2-dimethylpropanoate], under “Caco-2”, the Papp A→B at 90 min amounted to 5.8 ×10⁻⁶ cm/s, the basolateral-to-apical permeability (Papp B→A) at 90 min turned out to be 3.2 ×10⁻⁶ cm/s and the efflux ratio at 90 min was found to be 0.55.

`CCCCCOC(=O)Nc1ncnn2c([C@]3(C#N)O[C@H](CO)[C@@H](O)[C@H]3O)ccc12` [Compound 81, pentyl (7-((2R,3R,4S,5R)-2-cyano-3,4-dihydroxy-5-(hydroxymethyl)tetrahydrofuran-2-yl)pyrrolo[2,1-f][1,2,4]triazin-4-yl)carbamate]: where the note is “Caco-2”, the Papp A→B at 90 min turned out to be 1 ×10⁻⁶ cm/s, the Papp B→A at 90 min came to 14.7 ×10⁻⁶ cm/s and the efflux ratio at 90 min was 14.

Turning to `CC(C)[C@H](N)C(=O)Nc1ncnn2c([C@]3(C#N)O[C@H](CO)[C@@H](O)[C@H]3O)ccc12` [Compound 83, (2S)-2-amino-N-{7-[(2R,3R,4S,5R)-2-cyano-3,4-dihydroxy-5-(hydroxymethyl)oxolan-2-yl]pyrrolo[2,1-f][1,2,4]triazin-4-yl}-3-methylbutanamide], under “Caco-2”, the Papp A→B at 90 min came out at 0.07 ×10⁻⁶ cm/s, the Papp B→A at 90 min was 0.2 ×10⁻⁶ cm/s and the efflux ratio at 90 min was determined as 3.

Consider `N#C[C@@]1(c2ccc3c(NC(=O)c4ccccc4)ncnn23)O[C@H](CO)[C@@H](O)[C@H]1O` [Compound 85, N-(7-((2R,3R,4S,5R)-2-cyano-3,4-dihydroxy-5-(hydroxymethyl)tetrahydrofuran-2-yl)pyrrolo[2,1-f][1,2,4]triazin-4-yl)benzamide], for which, where the note is “Caco-2”, the Papp A→B at 90 min was 0.37 ×10⁻⁶ cm/s, the Papp B→A at 90 min is 11 ×10⁻⁶ cm/s and the efflux ratio at 90 min was found to be 31.

Turning to `CCCCCOC(=O)Nc1ncnn2c([C@]3(C#N)O[C@H](COC(=O)[C@@H](N)C(C)C)[C@@H](O)[C@H]3O)ccc12` [Compound 86, ((2R,3S,4R,5R)-5-cyano-3,4-dihydroxy-5-(4-(((pentyloxy)carbonyl)amino)pyrrolo[2,1-f][1,2,4]triazin-7-yl)tetrahydrofuran-2-yl)methyl L-valinate], under “Caco-2”, the Papp A→B at 90 min is 0.33 ×10⁻⁶ cm/s, the Papp B→A at 90 min was 11 ×10⁻⁶ cm/s and the efflux ratio at 90 min was found to be 35.

As to `CCCCCOC(=O)Nc1ncnn2c([C@]3(C#N)O[C@H](COC(C)=O)[C@@H](O)[C@H]3O)ccc12` [Compound 87, ((2R,3S,4R,5R)-5-cyano-3,4-dihydroxy-5-(4-(((pentyloxy)carbonyl)amino)pyrrolo[2,1-f][1,2,4]triazin-7-yl)tetrahydrofuran-2-yl)methyl acetate], under “Caco-2”, the Papp A→B at 90 min amounted to 5.5 ×10⁻⁶ cm/s, the Papp B→A at 90 min is 14 ×10⁻⁶ cm/s and the efflux ratio at 90 min is 2.7.

Turning to `CCCCCOC(=O)Nc1ncnn2c([C@]3(C#N)O[C@H](COC(=O)CC4CCCCC4)[C@@H](O)[C@H]3O)ccc12` [Compound 88, ((2R,3S,4R,5R)-5-cyano-3,4-dihydroxy-5-(4-(((pentyloxy)carbonyl)amino)pyrrolo[2,1-f][1,2,4]triazin-7-yl)tetrahydrofuran-2-yl)methyl 2-cyclohexylacetate], for the setting “Caco-2”, the Papp A→B at 90 min was 2.1 ×10⁻⁶ cm/s, the Papp B→A at 90 min was 1.6 ×10⁻⁶ cm/s and the efflux ratio at 90 min is 0.78.

`CCCCCOC(=O)Nc1ncnn2c([C@]3(C#N)O[C@H](COC(=O)Cc4ccccc4)[C@@H](O)[C@H]3O)ccc12` [Compound 89, ((2R,3S,4R,5R)-5-cyano-3,4-dihydroxy-5-(4-(((pentyloxy)carbonyl)amino)pyrrolo[2,1-f][1,2,4]triazin-7-yl)tetrahydrofuran-2-yl)methyl 2-phenylacetate]: the Papp A→B at 90 min under setting [1] amounted to 2.1 ×10⁻⁶ cm/s. Moreover, the Papp B→A at 90 min under setting [2] was 6.6 ×10⁻⁶ cm/s. In addition, the efflux ratio at 90 min under setting [3] is 3.2.

Take `CCCCCOC(=O)Nc1ncnn2c([C@]3(C#N)O[C@H](COC(=O)CC)[C@@H](O)[C@H]3O)ccc12` [Compound 91, ((2R,3S,4R,5R)-5-cyano-3,4-dihydroxy-5-(4-(((pentyloxy)carbonyl)amino)pyrrolo[2,1-f][1,2,4]triazin-7-yl)tetrahydrofuran-2-yl)methyl propionate]: the Papp A→B at 90 min under setting [1] was 1.9 ×10⁻⁶ cm/s. Also, the Papp B→A at 90 min under setting [2] stood at 4.1 ×10⁻⁶ cm/s. Also, the efflux ratio at 90 min under setting [3] was found to be 2.1.

The record behind these values is patent publication US12102648B2, “Orally-bioavailable nucleoside analogs” (priority 2021, dated 2024).
